Here are results for three compounds from patent US6864364B1, “MinK-related genes, formation of potassium channels and association with cardiac arrhythmia” (priority 1999, dated 2005).

Series [1] concerns the target T1, heteromeric channels containing rMiRP1 (Homo sapiens, UniProt Q12809).
T1 construct: expressed in transfected cells; host or cells: Xenopus laevis oocytes, cRNA injection
The series can be described thus: Ca2+ treated as blocking ion, rMiRP1/HERG channels in oocytes, protocols 1 and 2. It is filed as cell-based, rat. The note with it: rMiRP1/HERG vs HERG. The protocol:
(§1) Raw data are shown without leak correction. […] All experiments were performed at 22° C.

In series [2] the target is T2, HERG channels (Homo sapiens, UniProt Q12809). The series can be described thus: Ca2+ treated as blocking ion, HERG channels in oocytes, protocols 1 and 2. It is filed as cell-based. Also on record: expressed in transfected cells; host or cells: CHO cells. The note with it: −100 mV, read-out: apparent equilibrium inhibition constant (Ki). The protocol: as §1
Series [3] concerns the target wild type hMiRP1/HERG channels (Homo sapiens, UniProt Q12809). The series can be described thus: Drug blockade of wild type hMiRP1/HERG channels expressed in CHO cells. As for the experimental part: (§2) Ionic conditions. Activation of channels formed only with HERG or containing both rMiRP1 and HERG subunits was assessed at various Ca^2+ concentrations by protocols 1 and 2. […] Initial characterizations were thus performed in a “low Ca^2+/high K^+” bath solution (in mM): 95 KCl, 5 NaCl, 1 MgCl2, 0.3 CaCl2 and 10 HEPES, pH 7.6 with NaOH. Other studies use solutions based on levels of ionized species found in human plasma (in mM): 4 KCl, 95 NaCl, 0.75 MgCl2, 1 CaCl2 and 10 HEPES, pH 7.6 with NaOH. For K^+ titrations in FIG. 4, NaCl and KCl were isotonically substituted. For cell-attached patches, pipette solution was (in mM): 100 KCl, 1 MgCl2, 0.3 CaCl2, 10 HEPES, pH 7.5 with KOH. For whole cell, pipettes contained (in mM): 100 KCl, 1 MgCl2, 10 HEPES, 2 EGTA, pH 7.5 with KOH.

The target of series [4] is T2, HERG channels. In words: cell-based. The protocol: as §2
Another series has as its target Q9E-hMiRP1 channels (Homo sapiens, UniProt Q12809). The series can be described thus: Clarithromycin blockade of Q9E-hMiRP1/HERG channels in CHO cells. Conditions: for Ki: clarithromycin blockade. As for the experimental part: Wild type hMiRP1/HERG channels and those formed with Q9E, M54T, I57T or T8A-hMiRP1 were compared by transient expression in CHO cells using 1 mM Ca^2+, 4 mM KCl solution.

A further series has as its target Native IKr channels. Conditions: ferret cardiac myocytes; Liu et al., 1996; read-out: Ki, E-4031, native IKr channels; cited from earlier work.

As to `[Ca+2]` [Ca^2+], the “apparent Ki relative to HERG channels, fold lower” value in series [1] was about 3 fold. For the same compound, the Ki at HERG channels [2] turned out to be 290 ± 20 µM.

As for `CC[C@H]1OC(=O)[C@H](C)[C@@H](O[C@H]2C[C@@](C)(OC)[C@@H](O)[C@H](C)O2)[C@H](C)[C@@H](O[C@@H]2O[C@H](C)C[C@H](N(C)C)[C@H]2O)[C@](C)(OC)C[C@@H](C)C(=O)[C@H](C)[C@@H](O)[C@]1(C)O` [clarithromycin], the IC50 – broadly, the concentration at which inhibition is half-maximal – is 720 ± 180 µM in series [3] and 750 ± 310 µM against HERG channels [4]. Moreover, the Ki worked out at 590 ± 100 µM in series [3]; 240 ± 40 µM at Q9E-hMiRP1 channels (CHO cells, 1 mM Ca2+, 4 mM KCl); 200 ± 70 µM on Q9E-hMiRP1 channels (bath K+ reduced to 1 mM, n=6 cells). Besides, the “shift of V1/2 to more positive potentials” value came out at 10 mV in series [3] (human, pH 7.6) and 10 mV on Q9E-hMiRP1 channels. Further, the “sensitivity to the drug relative to wild type channels” value at Q9E-hMiRP1 channels stood at 3 fold.

For `Cc1cccc(CCN2CCC(C(=O)c3ccc(NS(C)(=O)=O)cc3)CC2)n1` [E-4031], the Ki at Native IKr channels was 0.0103 µM.
